The test has as its target Cdk9/cyclinT1 (Homo sapiens, UniProt P50750). As to the kind of experiment: Cdk9/cyclinT1 IMAP protocol (fluorescence polarization). As to conditions: IC-50, CDK9; lower limit of assay 0.0005 micromolar. For orientation: In fluorescence polarisation assays a small probe gives low polarisation when free and higher when bound to something large.

SMILES strings stand for the structures.

Cdk9/cyclinT1, sequence (P50750 whole entry): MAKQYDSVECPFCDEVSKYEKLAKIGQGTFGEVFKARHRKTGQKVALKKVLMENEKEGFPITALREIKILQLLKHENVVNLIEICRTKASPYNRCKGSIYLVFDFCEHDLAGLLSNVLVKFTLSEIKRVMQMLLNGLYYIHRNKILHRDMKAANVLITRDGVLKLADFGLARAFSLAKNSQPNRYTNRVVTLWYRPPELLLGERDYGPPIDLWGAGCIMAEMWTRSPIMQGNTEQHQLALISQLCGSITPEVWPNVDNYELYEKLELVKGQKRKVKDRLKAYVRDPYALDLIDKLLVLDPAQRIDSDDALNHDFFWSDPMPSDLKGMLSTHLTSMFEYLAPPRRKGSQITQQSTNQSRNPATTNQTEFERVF
Cdk9/cyclinT1, sequence (O60563 whole entry partner): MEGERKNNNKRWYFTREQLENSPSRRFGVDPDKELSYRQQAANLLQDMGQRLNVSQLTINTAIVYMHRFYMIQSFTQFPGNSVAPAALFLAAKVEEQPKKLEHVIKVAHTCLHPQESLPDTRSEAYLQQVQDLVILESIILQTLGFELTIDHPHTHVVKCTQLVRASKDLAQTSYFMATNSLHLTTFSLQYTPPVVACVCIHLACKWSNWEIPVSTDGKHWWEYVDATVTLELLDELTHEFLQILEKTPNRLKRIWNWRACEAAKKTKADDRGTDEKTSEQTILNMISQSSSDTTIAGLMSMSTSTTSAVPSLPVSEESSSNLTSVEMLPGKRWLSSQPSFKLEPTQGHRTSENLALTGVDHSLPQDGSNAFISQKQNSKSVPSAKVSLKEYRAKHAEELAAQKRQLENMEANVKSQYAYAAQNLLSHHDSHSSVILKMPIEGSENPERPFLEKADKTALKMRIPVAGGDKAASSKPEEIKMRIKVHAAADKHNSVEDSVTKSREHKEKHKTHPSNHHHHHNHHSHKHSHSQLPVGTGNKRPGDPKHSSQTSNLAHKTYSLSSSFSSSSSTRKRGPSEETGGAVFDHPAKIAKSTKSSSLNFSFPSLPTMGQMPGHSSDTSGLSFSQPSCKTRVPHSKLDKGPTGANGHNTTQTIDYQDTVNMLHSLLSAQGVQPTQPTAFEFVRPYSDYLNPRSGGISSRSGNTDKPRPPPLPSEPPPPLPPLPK

`CO[C@@H]1CCN([C@H]2CC[C@H](Nc3cc(-c4cccc(NCC5(C#N)CCOCC5)n4)c(Cl)cn3)CC2)C1` [Compound 477, 4-(((5′-chloro-2′-((trans-4-((R)-3-methoxypyrrolidin-1-yl)cyclohexyl)amino)-[2,4′-bipyridin]-6-yl)amino)methyl)tetrahydro-2H-pyran-4-carbonitrile] yielded an IC50 of 0.8 nM. In the case of `C[C@@H]1CN([C@H]2CC[C@H](Nc3cc(-c4cccc(NCC5(C#N)CCOCC5)n4)c(Cl)cn3)CC2)C[C@H](C)O1` [Compound 426, 4-(((5′-chloro-2′-((trans-4-((2S,6R)-2,6-dimethylmorpholino)cyclohexyl)amino)-[2,4′-bipyridin]-6-yl)amino)methyl)tetrahydro-2H-pyran-4-carbonitrile], the IC50 was ≤ 0.5 nM. Regarding `N#CC1(CNc2cccc(-c3cc(N[C@H]4CC[C@H](NC[C@H](O)C(F)(F)F)CC4)ncc3Cl)n2)CCOCC1` [Compound 490, 4-(((5′-chloro-2′-((trans-4-(((S)-3,3,3-trifluoro-2-hydroxypropyl)amino)cyclohexyl)amino)-[2,4′-bipyridin]-6-yl)amino)methyl)tetrahydro-2H-pyran-4-carbonitrile], the IC50 is < 0.5 nM. In the case of `COCCN[C@H]1CC[C@H](Nc2cc(-c3cccc(NCC4(C#N)CCOCC4)n3)c(F)cn2)CC1` [Compound 474, 4-(((5′-fluoro-2′-((trans-4-((2-methoxyethyl)amino)cyclohexyl)amino)-[2,4′-bipyridin]-6-yl)amino)methyl)tetrahydro-2H-pyran-4-carbonitrile] it was < 0.5 nM; in that of `N#CC1(CNc2cccc(-c3cc(N[C@@H]4CC[C@@H](NCC5CCCO5)C4)ncc3Cl)n2)CCOCC1` (stereo partly drawn) [Compound 410, 4-(((5′-chloro-2′-(((1R,3R)-3-(((tetrahydrofuran-2-yl)methyl)amino)cyclopentyl)amino)-[2,4′-bypyridin]-6-yl)amino)methyl)tetrahydro-2H-pyran-4-carbonitrile], < 0.5 nM; in that of `CNC(=O)CN[C@H]1CC[C@H](Nc2cc(-c3cccc(NCC4(C#N)CCOCC4)n3)c(Cl)cn2)CC1` [Compound 420, 2-((trans-4-((5′-chloro-6-(((4-cyanotetrahydro-2H-pyran-4-yl)methyl)amino)-[2,4′-bipyridin]-2′-yl)amino)cyclohexyl)amino)-N-methylacetamide], < 0.5 nM. Turning to `N[C@H]1CC[C@H](Nc2cc(-c3cccc(NCC4(O)CCOCC4)n3)c(Cl)cn2)CC1` [Compound 450, 4-(((2′-((trans-4-aminocyclohexyl)amino)-5′-chloro-[2,4′-bipyridin]-6-yl)amino)methyl)tetrahydro-2H-pyran-4-ol], the IC50 came to 1.5 nM. The value for `N#CC1(CNc2cccc(-c3cc(N[C@H]4CC[C@H](NCCC(F)(F)F)CC4)ncc3Cl)n2)CCOCC1` [Compound 433, 4-(((5′-chloro-2′-((trans-4-((3,3,3-trifluoropropyl)amino)cyclohexyl)amino)-[2,4′-bipyridin]-6-yl)amino)methyl)tetrahydro-2H-pyran-4-carbonitrile] was 0.6 nM; that for `N#CC1(CNc2cccc(-c3cc(N[C@@H]4CC[C@@H](N(CC5CCCO5)CC5CCCO5)C4)ncc3Cl)n2)CCOCC1` (some centres unmarked) [Example 407] was 5.5 nM. The value for `N#CC1(CNc2cccc(-c3cc(N[C@H]4CC[C@H](N)CC4)ncc3F)n2)CCOCC1` [Compound 479, 4-(((2′-((trans-4-aminocyclohexyl)amino)-5′-fluoro-[2,4′-bipyridin]-6-yl)amino)methyl)tetrahydro-2H-pyran-4-carbonitrile] was < 0.5 nM; that for `COC[C@H](C)N[C@H]1CC[C@H](Nc2cc(-c3ccc(F)c(NC[C@@H]4CCOC(C)(C)C4)n3)c(Cl)cn2)CC1` [Compound 462, 5′-chloro-N6-(((R)-2,2-dimethyltetrahydro-2H-pyran-4-yl)methyl)-5-fluoro-N2′-(trans-4-(((S)-1-methoxypropan-2-yl)amino)cyclohexyl)-[2,4′-bipyridine]-2′,6-diamine] was 1.2 nM. The value for `N#CC1(CNc2cccc(-c3cc(N[C@H]4CC[C@H](N5CCNC(=O)C5)CC4)ncc3Cl)n2)CCOCC1` [Compound 417] was 1.3 nM; that for `COC(=O)NC[C@H]1CC[C@H](Nc2cc(-c3cccc(NCC4(C#N)CCOCC4)n3)c(Cl)cn2)CC1` [Compound 497, methyl ((trans-4-((5′-chloro-6-(((4-cyanotetrahydro-2H-pyran-4-yl)methyl)amino)-[2,4′-bipyridin]-2′-yl)amino)cyclohexyl)methyl) carbamate] was < 0.5 nM. In the case of `CO[C@H]1CCN([C@H]2CC[C@@H](Nc3cc(-c4cccc(NCC5(C#N)CCOCC5)n4)c(Cl)cn3)CC2)C1` [Compound 476, 4-(((5′-chloro-2′-((cis-4-((S)-3-methoxypyrrolidin-1-yl)cyclohexyl)amino)-[2,4′-bipyridin]-6-yl)amino)methyl)tetrahydro-2H-pyran-4-carbonitrile], it took 5.4 nM to reach half-maximal inhibition (IC50). In the case of `CO[C@@H]1CCN([C@H]2CC[C@@H](Nc3cc(-c4cccc(NCC5(C#N)CCOCC5)n4)c(Cl)cn3)CC2)C1` [Compound 478, 4-(((5′-chloro-2′-((cis-4-((R)-3-methoxypyrrolidin-1-yl)cyclohexyl)amino)-[2,4′-bipyridin]-6-yl)amino)methyl)tetrahydro-2H-pyran-4-carbonitrile] it was 19 nM; in that of `N#CC1(CNc2cccc(-c3cc(NC4CCC(N)CC4)ncc3Cl)n2)CC1` (centres unmarked) [Compound 413, 1-(((2′-((4-aminocyclohexyl)amino)-5′-chloro-[2,4′-bipyridin]-6-yl)amino)methyl)cyclopropane-carbonitrile], < 0.5 nM.

Compound `CC(C)(NC[C@H]1CC[C@H](Nc2cc(-c3cccc(NCC4(C#N)CCOCC4)n3)c(Cl)cn2)CC1)C(=O)O` [Compound 429, 2-(((trans-4-((5′-chloro-6-(((4-cyanotetrahydro-2H-pyran-4-yl)methyl)amino)-[2,4′-bipyridin]-2′-yl)amino)cyclohexyl)methyl)amino)-2-methylpropanoic acid] returned an IC50 of 1.3 nM. As to `N#CC1(CNc2cccc(-c3cc(N[C@@H]4CCCc5ccccc54)ncc3Cl)n2)CCOCC1` [Compound 500, (R)-4-(((5′-chloro-2′-((1,2,3,4-tetrahydronaphthalen-1-yl)amino)-[2,4′-bipyridin]-6-yl)amino)methyl)tetrahydro-2H-pyran-4-carbonitrile], half-maximal inhibition (IC50) required 20 nM.

Consider `COC[C@@H](C)N[C@H]1CC[C@H](Nc2cc(-c3cccc(NCCC#N)n3)c(Cl)cn2)CC1` [Compound 445, 3-((5′-chloro-2′-((trans-4-(((R)-1-methoxypropan-2-yl)amino)cyclohexyl)amino)-[2,4′-bipyridin]-6-yl)amino)propanenitrile], for which the IC50 was 2.1 nM. In the case of `CC(C)N[C@H]1CC[C@H](Nc2cc(-c3cccc(NCC4(C#N)CCOCC4)n3)c(Cl)cn2)CC1` [Compound 412, 4-(((5′-chloro-2′-((trans-4-(isopropylamino)cyclohexyl)amino)-[2,4′-bipyridin]-6-yl)amino)methyl)tetrahydro-2H-pyran-4-carbonitrile] it was < 0.5 nM; in that of `N#CC1(CNc2cccc(-c3cc(N[C@H]4CC[C@H](N)CC4)ncc3Cl)n2)CCOCC1` [Compound 464, 4-(((2′-((trans-4-aminocyclohexyl)amino)-5′-chloro-[2,4′-bipyridin]-6-yl)amino)methyl)tetrahydro-2H-pyran-4-carbonitrile], < 0.5 nM; in that of `N#CC1(CNc2cccc(-c3cc(N[C@H]4CC[C@H](N5CCCOCC5)CC4)ncc3Cl)n2)CCOCC1` [Compound 428, 4-(((2′-((trans-4-(1,4-oxazepan-4-yl)cyclohexyl)amino)-5′-chloro-[2,4′-bipyridin]-6-yl)amino)methyl)tetrahydro-2H-pyran-4-carbonitrile], 0.6 nM. The value for `N#CC1(CNc2cccc(-c3cc(N[C@H]4CC[C@H](NC[C@H]5CCCO5)CC4)ncc3Cl)n2)CCOCC1` [Compound 473, 4-(((5′-chloro-2′-((trans-4-((((R)-tetrahydrofuran-2-yl)methyl)amino)cyclohexyl)amino)-[2,4′-bipyridin]-6-yl)amino)methyl)tetrahydro-2H-pyran-4-carbonitrile] was < 0.5 nM; that for `CO[C@@H]1C[C@@H](Nc2cc(-c3cccc(NCC4(C#N)CCOCC4)n3)c(Cl)cn2)CC[C@@H]1N` (single isomer, unassigned) [Compound 435] was ≤ 0.5 nM. The value for `COC[C@H](C)N[C@H]1CC[C@H](Nc2cc(-c3ccc(F)c(NCC4CCOC(C)(C)C4)n3)c(Cl)cn2)CC1` (stereo partly drawn) [Compound 457, 5′-chloro-N6-((2,2-dimethyltetrahydro-2H-pyran-4-yl)methyl)-5-fluoro-N2′-(trans-4-(((S)-1-methoxypropan-2-yl)amino)cyclohexyl)-[2,4′-bipyridine]-2′,6-diamine] was 1.6 nM. For `N#CC1(CNc2cccc(-c3cc(NC4CCNCC4)ncc3Cl)n2)CCOCC1` [Example 402], the IC50 is 4.8 nM. In the case of `COCCN[C@H]1CC[C@H](Nc2cc(-c3cncc(OCC4(C#N)CCOCC4)n3)c(Cl)cn2)CC1` [Compound 510, 4-(((6-(5-chloro-2-((trans-4-((2-methoxyethyl)amino)cyclohexyl)amino)pyridin-4-yl)pyrazin-2-yl)oxy)methyl)tetrahydro-2H-pyran-4-carbonitrile] it was 1.3 nM; in that of `N#CC1(CNc2cccc(-c3cc(N[C@H]4CC[C@H](CNc5nc6ccccc6o5)CC4)ncc3Cl)n2)CCOCC1` [Compound 504, 4-(((2′-((trans-4-((benzo[d]oxazol-2-ylamino)methyl)cyclohexyl)amino)-5′-chloro-[2,4′-bipyridin]-6-yl)amino)methyl)tetrahydro-2H-pyran-4-carbonitrile], 1 nM.

Compound `CN(C)C(=O)NC[C@H]1CC[C@H](Nc2cc(-c3cccc(NCC4(C#N)CCOCC4)n3)c(Cl)cn2)CC1` [Compound 499, 3-((trans-4-((5′-chloro-6-(((4-cyanotetrahydro-2H-pyran-4-yl)methyl)amino)-[2,4′-bipyridin]-2′-yl)amino)cyclohexyl)methyl)-1,1-dimethylurea] gave a half-inhibitory concentration (IC50) of 0.6 nM.

A word on the IC50: it is the midpoint of a concentration-inhibition curve. Read a high IC50 as weaker potency in that assay.

Values taken from patent publication US20130303507A1 (Novartis AG, priority 2011, published 2013).
